These results are taken from patent US20220265845A1, “AMINOTHIOLESTER COMPOUNDS AND USES THEREOF” (ADVANCED BIODESIGN, priority 2019, published 2022).

Assay in all cases: Kinetic parameters and inhibition type from Kobs versus inhibitor concentration plots
Assay type in all cases: biochemical

In assay [1] the target is T1, Human recombinant ALDH1A1 (Homo sapiens, UniProt P00352).
T1 construct: purchased Creative BioMart, NY, USA
T1 sequence (P00352 1-501): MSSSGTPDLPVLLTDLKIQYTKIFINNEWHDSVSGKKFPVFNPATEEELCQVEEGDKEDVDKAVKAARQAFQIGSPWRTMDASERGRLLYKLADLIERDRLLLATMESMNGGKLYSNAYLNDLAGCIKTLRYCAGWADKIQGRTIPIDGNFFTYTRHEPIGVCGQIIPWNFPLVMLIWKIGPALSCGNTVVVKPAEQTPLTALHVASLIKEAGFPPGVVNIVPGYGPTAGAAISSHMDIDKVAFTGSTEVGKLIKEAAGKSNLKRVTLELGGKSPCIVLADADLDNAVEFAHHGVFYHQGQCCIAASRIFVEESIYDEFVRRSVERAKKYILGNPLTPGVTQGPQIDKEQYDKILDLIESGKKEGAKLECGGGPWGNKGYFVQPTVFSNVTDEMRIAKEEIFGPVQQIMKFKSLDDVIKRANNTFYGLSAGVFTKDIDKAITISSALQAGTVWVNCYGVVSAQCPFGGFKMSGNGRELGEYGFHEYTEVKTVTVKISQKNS
To be noted: for kinact/KI: from Kobs versus [I] plots. The protocol: (§1) The kinetic data are expressed as the mean±standard error from three independent determination. Kinact/Ki was determined from Kobs versus concentration of the inhibitor [I] plots. […] The Kobs were obtained from negative exponential fit using non-linear regression program GraFit 5.0 (Erithacus software).
(§2) To determine the inhibition mechanisms of the tested compounds for each isoenzyme, the corresponding Kobs were calculated as mentioned above, plotting product concentration vs time incubation of the enzymes with the test compounds at 300 μM, 200 μM, 100 μM, 50 μM, 20 μM and 10 μM. The kobs were obtained for each concentration of inhibitor tested, from the negative exponential fit using non-linear regression program GraFit 5.0 (Erithacus software). Finally, the kinetic parameter of kinact/KI was determined from the plot of kobs versus the corresponding concentration of inhibitor. The slope of the linear fit of data indicated the rate constant in μM^−1·min^−1.

Assay [2] has as its target T2, Human recombinant ALDH1A2 (Homo sapiens, UniProt O94788).
T2 construct: purchased Creative BioMart, NY, USA
T2 sequence (O94788 1-518): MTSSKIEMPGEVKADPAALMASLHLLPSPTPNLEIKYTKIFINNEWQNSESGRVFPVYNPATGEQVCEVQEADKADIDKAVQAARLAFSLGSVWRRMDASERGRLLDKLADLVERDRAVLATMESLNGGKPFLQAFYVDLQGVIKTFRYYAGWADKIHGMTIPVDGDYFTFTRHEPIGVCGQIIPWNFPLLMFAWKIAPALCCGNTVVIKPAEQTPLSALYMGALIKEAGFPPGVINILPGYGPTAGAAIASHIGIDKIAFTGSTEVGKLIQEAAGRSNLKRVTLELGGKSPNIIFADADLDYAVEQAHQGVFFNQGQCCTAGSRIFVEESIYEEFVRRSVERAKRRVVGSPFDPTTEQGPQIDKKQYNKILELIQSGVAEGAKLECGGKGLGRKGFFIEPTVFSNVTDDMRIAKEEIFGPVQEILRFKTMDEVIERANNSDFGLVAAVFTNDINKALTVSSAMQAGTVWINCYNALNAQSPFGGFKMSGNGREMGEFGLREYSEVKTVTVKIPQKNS
To be noted: from Kobs versus [I] plots. The protocol:
as §1, §2

Assay [3] concerns the target T3, Human recombinant ALDH1A3 (Homo sapiens, UniProt P47895).
T3 construct: purchased Creative BioMart, NY, USA
T3 sequence (P47895 1-512): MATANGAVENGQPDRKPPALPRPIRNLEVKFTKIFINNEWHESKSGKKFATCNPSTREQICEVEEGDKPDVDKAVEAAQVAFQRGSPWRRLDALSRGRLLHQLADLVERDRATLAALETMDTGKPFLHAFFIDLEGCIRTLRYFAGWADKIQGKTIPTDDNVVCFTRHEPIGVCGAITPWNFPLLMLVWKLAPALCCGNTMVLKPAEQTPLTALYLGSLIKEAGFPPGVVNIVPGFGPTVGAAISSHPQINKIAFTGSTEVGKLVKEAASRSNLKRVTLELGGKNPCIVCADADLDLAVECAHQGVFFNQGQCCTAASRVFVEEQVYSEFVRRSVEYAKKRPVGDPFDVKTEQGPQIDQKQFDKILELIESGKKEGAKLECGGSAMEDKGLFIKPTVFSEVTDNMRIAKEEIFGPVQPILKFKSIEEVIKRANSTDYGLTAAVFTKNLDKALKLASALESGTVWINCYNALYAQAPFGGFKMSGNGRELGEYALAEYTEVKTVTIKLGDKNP
To be noted: for Specificity of interaction with ALDH1A3: compared with DIMATE; for kinact/KI: from Kobs versus [I] plots. The protocol: as §1, §2

The target of another assay is T4, Human recombinant ALDH2 (Homo sapiens, UniProt P05091).
T4 construct: purchased Creative BioMart, NY, USA
T4 sequence (P05091 18-517): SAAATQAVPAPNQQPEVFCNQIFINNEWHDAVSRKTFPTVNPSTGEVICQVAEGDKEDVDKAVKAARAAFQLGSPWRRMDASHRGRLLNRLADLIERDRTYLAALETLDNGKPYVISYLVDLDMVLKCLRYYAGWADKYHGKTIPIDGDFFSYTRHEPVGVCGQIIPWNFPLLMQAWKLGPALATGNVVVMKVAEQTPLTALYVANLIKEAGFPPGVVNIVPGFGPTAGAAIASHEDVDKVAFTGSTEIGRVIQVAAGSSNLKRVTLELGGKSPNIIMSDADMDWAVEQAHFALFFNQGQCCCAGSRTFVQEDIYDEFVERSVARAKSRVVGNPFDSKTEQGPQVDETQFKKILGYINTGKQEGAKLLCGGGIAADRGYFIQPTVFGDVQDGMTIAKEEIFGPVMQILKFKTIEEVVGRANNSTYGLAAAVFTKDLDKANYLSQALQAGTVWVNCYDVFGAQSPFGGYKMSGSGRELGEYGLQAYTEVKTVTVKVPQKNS
The conditions noted are these: from Kobs versus [I] plots. The protocol: as §1, §2

Assay [4] deals with T5, Human recombinant ALDH3A1 (Homo sapiens, UniProt P30838).
T5 sequence (P30838 1-453): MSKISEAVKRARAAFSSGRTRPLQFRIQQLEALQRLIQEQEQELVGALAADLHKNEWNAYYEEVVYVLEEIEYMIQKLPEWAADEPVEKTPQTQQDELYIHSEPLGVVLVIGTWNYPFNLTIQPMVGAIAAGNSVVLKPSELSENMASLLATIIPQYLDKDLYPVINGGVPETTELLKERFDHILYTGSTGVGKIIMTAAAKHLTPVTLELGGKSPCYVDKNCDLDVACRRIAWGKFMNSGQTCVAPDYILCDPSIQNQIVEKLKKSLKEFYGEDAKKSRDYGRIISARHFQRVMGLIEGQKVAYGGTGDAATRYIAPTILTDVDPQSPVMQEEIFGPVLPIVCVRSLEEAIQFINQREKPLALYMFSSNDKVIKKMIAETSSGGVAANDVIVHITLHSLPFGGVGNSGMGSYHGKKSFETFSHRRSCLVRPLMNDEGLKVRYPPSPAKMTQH
The conditions noted are these: for Ki: printed in the Kinact/Ki column in place of Kinact/Ki. The protocol: as §1, §2

For the compound `CSC(=O)C#CC(C)(C)N(C)CCOCc1ccccc1` [Example 3, S-methyl 4-[2-benzyloxyethyl(methyl)amino]-4-methyl-pent-2-ynethioate], the kinact/KI in assay [1] was 8.33 M⁻¹ s⁻¹; in assay [2], 1670 M⁻¹ s⁻¹; in assay [3] it was 642 M⁻¹ s⁻¹; at Human recombinant ALDH2, 9 M⁻¹ s⁻¹. In addition, in assay [3], the “ALDH1A3 Inhibition Type” value is “specific”. In addition, the “Specificity of interaction with ALDH1A3” value in assay [3] is recorded as “higher specificity”. In addition, the Ki in assay [4] stood at 233 µM.

On to `CSC(=O)C#CC(C)(C)N(C)CCOCc1ccc(C)c(C)c1` [Example 5, S-methyl 4-[2-[(3,4-dimethylphenyl)methoxy]ethyl-methyl-amino]-4-methyl-pent-2-ynethioate], for which the kinact/KI was 61.7 M⁻¹ s⁻¹ in assay [1]; 352 M⁻¹ s⁻¹ in assay [2]; 197 M⁻¹ s⁻¹ in assay [3]; 40.8 M⁻¹ s⁻¹ at Human recombinant ALDH2; 5 M⁻¹ s⁻¹ in assay [4] (from Kobs versus [I] plots). Moreover, the “ALDH1A3 Inhibition Type” value in assay [3] was “specific”. Also, the “Specificity of interaction with ALDH1A3” value in assay [3] was “higher specificity”.

As for `CSC(=O)C#CC(C)(C)N(C)C` [DIMATE, S-methyl 4-(dimethylamino)-4-methylpent-2-ynethioate, reference compound], the “ALDH1A1 Inhibition Type” value in assay [1] is “specific”. Moreover, the kinact/KI is 15 M⁻¹ s⁻¹ in assay [1], 85 M⁻¹ s⁻¹ in assay [2], 28.3 M⁻¹ s⁻¹ in assay [3] and 7.08 M⁻¹ s⁻¹ on Human recombinant ALDH2. For the same compound, in assay [3], the “ALDH1A3 Inhibition Type” value is listed as “non-specific affinity label”. For the same compound, the inhibition constant Ki in assay [4] came to 253 µM.
